Consider two compounds from ChEMBL document CHEMBL1146999, “Bradykinin antagonists modified with dipeptide mimetic beta-turn inducers” (Bioorg Med Chem Lett, 2006).

In assay [1] the target is T1, B2 bradykinin receptor (Homo sapiens, UniProt P30411).
T1 sequence (P30411 whole entry): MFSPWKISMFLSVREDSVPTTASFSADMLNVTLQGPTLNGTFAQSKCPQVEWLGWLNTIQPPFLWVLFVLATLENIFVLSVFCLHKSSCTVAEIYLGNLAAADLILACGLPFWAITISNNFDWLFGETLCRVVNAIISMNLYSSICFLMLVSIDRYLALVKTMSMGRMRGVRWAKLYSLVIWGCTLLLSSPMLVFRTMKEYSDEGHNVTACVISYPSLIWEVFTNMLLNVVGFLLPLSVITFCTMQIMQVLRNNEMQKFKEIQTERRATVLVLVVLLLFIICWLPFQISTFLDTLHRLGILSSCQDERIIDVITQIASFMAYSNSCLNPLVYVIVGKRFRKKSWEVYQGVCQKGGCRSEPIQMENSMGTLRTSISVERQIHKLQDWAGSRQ
The assay is described as follows: Antagonist activity against bradykinin B2 receptor. Format: functional. Particulars: read-out: pA2 (converted).

Assay [2] addresses T1, B2 bradykinin receptor. The assay is described as follows: Binding affinity to human bradykinin B2 receptor transfected in CHO cells. In kind it is cell-based.

pKi: −log10 of the molar value.

By pKi is commonly meant −log10 of the Ki, conventionally taken in molar units. A high value points to a low Ki. Turning to `NC(N)=NCCC[C@@H](N)C(=O)N[C@@H](CCCN=C(N)N)C(=O)N1CCC[C@H]1C(=O)N1CC(O)C[C@H]1C(=O)NCC(=O)N[C@@H](Cc1cccs1)C(=O)N[C@@H](CO)C(=O)N[C@]1(Cc2ccccc2)CCCC2N(C1=O)[C@H](C(=O)N[C@@H](CCCN=C(N)N)C(=O)O)CC21CCCC1` (some centres undefined), the Kb in assay [1] is greater than 10000 nM. Also, the pKi in assay [2] was 5.50.
On the same counts, the results for `NC(N)=NCCC[C@@H](N)C(=O)N[C@@H](CCCN=C(N)N)C(=O)N1CCC[C@H]1C(=O)N1CC(O)C[C@H]1C(=O)NCC(=O)N[C@@H](Cc1cccs1)C(=O)N[C@@H](CO)C(=O)N[C@@]1(Cc2ccccc2)CCCC2N(C1=O)[C@H](C(=O)N[C@@H](CCCN=C(N)N)C(=O)O)CC21CCCC1` (some centres undefined) are 2510 nM and 7.00.
